{"source": "patent US20060069132A1", "about": "“Azolecarboxamide herbicides” (priority 2004, published 2006)", "experiment_in_all_cases": "Test C pre-/postemergence herbicide test", "key": {"Surinam grass": {"system": "Surinam grass", "assay_type": "in vivo, Urochloa decumbens", "details": "for Surinam Grass plant response rating: 500 g ai/ha", "in_short": "(§1)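 Visual injury scores run from 0 (no effect) to 100 (complete control), assessed relative to untreated controls 12 to 14 days after treatment in the greenhouse. Chemicals were formulated in a non-phytotoxic solvent mixture with surfactant and applied to soil after planting or to emerged plants at the 1- to 4-leaf stage.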"}, "velvetleaf": {"system": "velvetleaf", "assay_type": "in vivo, Abutilon theophrasti", "details": "for Velvetleaf plant response rating: 500 g ai/ha", "in_short": "as §1"}, "pigweed": {"system": "pigweed", "assay_type": "in vivo, Amaranthus retroflexus", "details": "for Pigweed plant response rating: 500 g ai/ha", "in_short": "as §1"}, "goosegrass": {"system": "goosegrass", "assay_type": "in vivo, Eleusine indica", "details": "for Goosegrass plant response rating: 500 g ai/ha", "in_short": "as §1"}, "soybean": {"system": "soybean", "assay_type": "in vivo, Glycine max", "details": "for Soybean plant response rating: 500 g ai/ha", "in_short": "as §1"}, "johnsongrass": {"system": "johnsongrass", "assay_type": "in vivo, Sorghum halepense", "details": "for Johnsongrass plant response rating: 500 g ai/ha", "in_short": "as §1"}, "kochia": {"system": "kochia", "assay_type": "in vivo, Kochia scoparia", "details": "for Kochia plant response rating: 500 g ai/ha", "in_short": "as §1"}, "large crabgrass": {"system": "large crabgrass", "assay_type": "in vivo, Digitaria sanguinalis", "details": "for Crabgrass, Large plant response rating: 500 g ai/ha", "in_short": "as §1"}, "[1]": {"details": "125 g ai/ha, scale 0 (no effect) to 100 (complete control), visual, 12 to 14 days, preemergence"}, "[2]": {"details": "250 g ai/ha, scale 0 to 100 (0 no effect, 100 complete control), visual, 12 to 14 days, preemergence"}, "[3]": {"details": "Postemergence, 250 g ai/ha, scale 0 to 100, 0 no effect, 100 complete control"}, "[4]": {"details": "Preemergence, scale 0 to 100, 0 no effect, 100 complete control"}, "[5]": {"details": "postemergence, 62 g ai/ha, scale 0 to 100"}, "[6]": {"details": "Postemergence, 125 g ai/ha, scale 0 to 100, 0 no effect, 100 complete control"}}, "data": [{"compound": "C=CCNC(=O)c1cccc(NC(=O)c2cc(C(C)(C)C)nn2CC)c1", "note": "[Compound 46]", "values": [{"measurement": "Plant response rating (0 = no effect, 100 = complete control), Surinam Grass", "setting": "Surinam grass; 62 g ai/ha, preemergence", "value": 10}, {"measurement": "Plant response rating, Surinam Grass", "setting": "Surinam grass; [1]", "value": 30}, {"measurement": "Plant response rating, Surinam Grass", "setting": "Surinam grass; [2]", "value": 60}, {"measurement": "Surinam Grass plant response rating", "setting": "Surinam grass; Postemergence, scale 0 to 100", "value": 50}, {"measurement": "Plant response rating, Surinam Grass", "setting": "Surinam grass; [3]", "value": 50}, {"measurement": "Surinam Grass plant response rating", "setting": "Surinam grass; [4]", "value": 80}, {"measurement": "Plant response rating, Surinam Grass", "setting": "Surinam grass; [5]", "value": 40}, {"measurement": "Plant response rating (0 = no effect, 100 = complete control), Velvetleaf", "setting": "velvetleaf; 62 g ai/ha, preemergence", "value": 90}, {"measurement": "Plant response rating, Velvetleaf", "setting": "velvetleaf; [1]", "value": 100}, {"measurement": "Plant response rating, Velvetleaf", "setting": "velvetleaf; [2]", "value": 100}, {"measurement": "Velvetleaf plant response rating", "setting": "velvetleaf; Postemergence, scale 0 to 100", "value": 80}, {"measurement": "Plant response rating, Velvetleaf", "setting": "velvetleaf; [3]", "value": 80}, {"measurement": "Velvetleaf plant response rating", "setting": "velvetleaf; [4]", "value": 100}, {"measurement": "Plant response rating, Velvetleaf", "setting": "velvetleaf; [5]", "value": 50}, {"measurement": "Plant response rating (0 = no effect, 100 = complete control), Pigweed", "setting": "pigweed; 62 g ai/ha, preemergence", "value": 20}, {"measurement": "Plant response rating, Pigweed", "setting": "pigweed; [1]", "value": 100}, {"measurement": "Plant response rating, Pigweed", "setting": "pigweed; [2]", "value": 100}, {"measurement": "Pigweed plant response rating", "setting": "pigweed; Postemergence, scale 0 to 100", "value": 100}, {"measurement": "Plant response rating, Pigweed", "setting": "pigweed; [3]", "value": 100}, {"measurement": "Pigweed plant response rating", "setting": "pigweed; [4]", "value": 100}, {"measurement": "Plant response rating, Pigweed", "setting": "pigweed; [5]", "value": 100}, {"measurement": "Plant response rating (0 = no effect, 100 = complete control), Goosegrass", "setting": "goosegrass; 62 g ai/ha, preemergence", "value": 60}, {"measurement": "Plant response rating, Goosegrass", "setting": "goosegrass; [1]", "value": 90}, {"measurement": "Plant response rating, Goosegrass", "setting": "goosegrass; [2]", "value": 100}, {"measurement": "Goosegrass plant response rating", "setting": "goosegrass; Postemergence, scale 0 to 100", "value": 80}, {"measurement": "Plant response rating, Goosegrass", "setting": "goosegrass; [6]", "value": 50}, {"measurement": "Plant response rating, Goosegrass", "setting": "goosegrass; [3]", "value": 50}, {"measurement": "Goosegrass plant response rating", "setting": "goosegrass; [4]", "value": 100}, {"measurement": "Plant response rating, Goosegrass", "setting": "goosegrass; [5]", "value": 40}, {"measurement": "Plant response rating (0 = no effect, 100 = complete control), Soybean", "setting": "soybean; 62 g ai/ha, preemergence", "value": 0}, {"measurement": "Plant response rating, Soybean", "setting": "soybean; [1]", "value": 0}, {"measurement": "Plant response rating, Soybean", "setting": "soybean; [2]", "value": 10}, {"measurement": "Soybean plant response rating", "setting": "soybean; Postemergence, scale 0 to 100", "value": 100}, {"measurement": "Plant response rating, Soybean", "setting": "soybean; [3]", "value": 100}, {"measurement": "Soybean plant response rating", "setting": "soybean; [4]", "value": 10}, {"measurement": "Plant response rating, Soybean", "setting": "soybean; [5]", "value": 100}, {"measurement": "Plant response rating (0 = no effect, 100 = complete control), Johnsongrass", "setting": "johnsongrass; 62 g ai/ha, preemergence", "value": 50}, {"measurement": "Plant response rating, Johnsongrass", "setting": "johnsongrass; [1]", "value": 80}, {"measurement": "Plant response rating, Johnsongrass", "setting": "johnsongrass; [2]", "value": 90}, {"measurement": "Johnsongrass plant response rating", "setting": "johnsongrass; Postemergence, scale 0 to 100", "value": 90}, {"measurement": "Plant response rating, Johnsongrass", "setting": "johnsongrass; [6]", "value": 60}, {"measurement": "Johnsongrass plant response rating", "setting": "johnsongrass; [4]", "value": 100}, {"measurement": "Plant response rating, Johnsongrass", "setting": "johnsongrass; [5]", "value": 60}, {"measurement": "Plant response rating (0 = no effect, 100 = complete control), Kochia", "setting": "kochia; 62 g ai/ha, preemergence", "value": 0}, {"measurement": "Plant response rating, Kochia", "setting": "kochia; [1]", "value": 90}, {"measurement": "Plant response rating, Kochia", "setting": "kochia; [2]", "value": 100}, {"measurement": "Kochia plant response rating", "setting": "kochia; Postemergence, scale 0 to 100", "value": 100}, {"measurement": "Plant response rating, Kochia", "setting": "kochia; [3]", "value": 100}, {"measurement": "Kochia plant response rating", "setting": "kochia; [4]", "value": 100}, {"measurement": "Plant response rating, Kochia", "setting": "kochia; [5]", "value": 90}, {"measurement": "Plant response rating (0 = no effect, 100 = complete control), Crabgrass, Large", "setting": "large crabgrass; 62 g ai/ha, preemergence", "value": 100}, {"measurement": "Plant response rating, Crabgrass, Large", "setting": "large crabgrass; [1]", "value": 100}, {"measurement": "Plant response rating, Crabgrass, Large", "setting": "large crabgrass; [2]", "value": 100}, {"measurement": "Crabgrass, Large plant response rating", "setting": "large crabgrass; Postemergence, scale 0 to 100", "value": 90}, {"measurement": "Plant response rating, Crabgrass, Large", "setting": "large crabgrass; [6]", "value": 90}, {"measurement": "Plant response rating, Crabgrass, Large", "setting": "large crabgrass; [3]", "value": 90}, {"measurement": "Crabgrass, Large plant response rating", "setting": "large crabgrass; [4]", "value": 100}]}]}
